From the NIST ThermoML archive (doi:10.1016/j.jct.2011.09.022)
Numbers after ± are expanded uncertainties.

Settings: Liquid, Closed cell (Static) method

## CC#N [acetonitrile]
278.72 K
  vapor or sublimation pressure: 4.443 ± 0.028 kPa
278.88 K
  vapor or sublimation pressure: 4.539 ± 0.019 kPa
278.98 K
  vapor or sublimation pressure: 4.513 ± 0.018 kPa
279.81 K
  vapor or sublimation pressure: 4.732 ± 0.019 kPa
280.27 K
  vapor or sublimation pressure: 4.859 ± 0.019 kPa
281.91 K
  vapor or sublimation pressure: 5.339 ± 0.019 kPa
283.17 K
  vapor or sublimation pressure: 5.637 ± 0.02 kPa
283.56 K
  vapor or sublimation pressure: 5.838 ± 0.024 kPa
283.81 K
  vapor or sublimation pressure: 5.916 ± 0.02 kPa
284.56 K
  vapor or sublimation pressure: 6.102 ± 0.021 kPa
285.7 K
  vapor or sublimation pressure: 6.473 ± 0.022 kPa
286.17 K
  vapor or sublimation pressure: 6.59 ± 0.022 kPa
286.61 K
  vapor or sublimation pressure: 6.754 ± 0.024 kPa
288.72 K
  vapor or sublimation pressure: 7.498 ± 0.04 kPa
288.8 K
  vapor or sublimation pressure: 7.559 ± 0.036 kPa
288.83 K
  vapor or sublimation pressure: 7.594 ± 0.04 kPa
289.39 K
  vapor or sublimation pressure: 7.802 ± 0.024 kPa
290.09 K
  vapor or sublimation pressure: 8.032 ± 0.026 kPa
290.6 K
  vapor or sublimation pressure: 8.302 ± 0.027 kPa
291.36 K
  vapor or sublimation pressure: 8.598 ± 0.028 kPa
292.48 K
  vapor or sublimation pressure: 9.163 ± 0.028 kPa
293.21 K
  vapor or sublimation pressure: 9.408 ± 0.029 kPa
293.92 K
  vapor or sublimation pressure: 9.82 ± 0.031 kPa
294.4 K
  vapor or sublimation pressure: 10.03 ± 0.029 kPa
295.33 K
  vapor or sublimation pressure: 10.43 ± 0.031 kPa
295.94 K
  vapor or sublimation pressure: 10.77 ± 0.033 kPa
296.44 K
  vapor or sublimation pressure: 11.02 ± 0.033 kPa
297.48 K
  vapor or sublimation pressure: 11.6 ± 0.034 kPa
298.3 K
  vapor or sublimation pressure: 12.05 ± 0.033 kPa
298.67 K
  vapor or sublimation pressure: 12.17 ± 0.034 kPa
299.42 K
  vapor or sublimation pressure: 12.61 ± 0.036 kPa
301.19 K
  vapor or sublimation pressure: 13.61 ± 0.038 kPa
302.14 K
  vapor or sublimation pressure: 14.18 ± 0.041 kPa
304.16 K
  vapor or sublimation pressure: 15.57 ± 0.043 kPa
305.01 K
  vapor or sublimation pressure: 16.1 ± 0.045 kPa
306.04 K
  vapor or sublimation pressure: 16.96 ± 0.047 kPa
306.9 K
  vapor or sublimation pressure: 17.53 ± 0.045 kPa
307.95 K
  vapor or sublimation pressure: 18.22 ± 0.049 kPa
309.92 K
  vapor or sublimation pressure: 19.85 ± 0.052 kPa
310.71 K
  vapor or sublimation pressure: 20.49 ± 0.053 kPa
311.79 K
  vapor or sublimation pressure: 21.38 ± 0.085 kPa
311.88 K
  vapor or sublimation pressure: 21.55 ± 0.085 kPa
312.81 K
  vapor or sublimation pressure: 22.5 ± 0.06 kPa
313.77 K
  vapor or sublimation pressure: 23.42 ± 0.058 kPa
314.79 K
  vapor or sublimation pressure: 24.17 ± 0.059 kPa
315.71 K
  vapor or sublimation pressure: 25.1 ± 0.055 kPa
315.79 K
  vapor or sublimation pressure: 25.15 ± 0.056 kPa
316.63 K
  vapor or sublimation pressure: 26.11 ± 0.067 kPa
317.72 K
  vapor or sublimation pressure: 27.21 ± 0.068 kPa
318.66 K
  vapor or sublimation pressure: 28.27 ± 0.07 kPa
319.69 K
  vapor or sublimation pressure: 29.39 ± 0.072 kPa
320.67 K
  vapor or sublimation pressure: 30.52 ± 0.076 kPa
321.65 K
  vapor or sublimation pressure: 31.73 ± 0.08 kPa
322.54 K
  vapor or sublimation pressure: 32.95 ± 0.11 kPa
322.56 K
  vapor or sublimation pressure: 32.94 ± 0.14 kPa
322.64 K
  vapor or sublimation pressure: 33.19 ± 0.11 kPa
323.64 K
  vapor or sublimation pressure: 34.49 ± 0.083 kPa
324.59 K
  vapor or sublimation pressure: 35.65 ± 0.085 kPa
325.58 K
  vapor or sublimation pressure: 37 ± 0.089 kPa

## C1CCOC1 [tetrahydrofuran]
275.99 K
  vapor or sublimation pressure: 7.099 ± 0.039 kPa
276.53 K
  vapor or sublimation pressure: 7.556 ± 0.025 kPa
277.76 K
  vapor or sublimation pressure: 7.839 ± 0.026 kPa
278.19 K
  vapor or sublimation pressure: 8.328 ± 0.027 kPa
279.41 K
  vapor or sublimation pressure: 8.614 ± 0.026 kPa
279.86 K
  vapor or sublimation pressure: 9.036 ± 0.029 kPa
280.16 K
  vapor or sublimation pressure: 8.932 ± 0.026 kPa
281.95 K
  vapor or sublimation pressure: 9.957 ± 0.032 kPa
283.07 K
  vapor or sublimation pressure: 10.55 ± 0.12 kPa
283.15 K
  vapor or sublimation pressure: 10.32 ± 0.065 kPa
283.36 K
  vapor or sublimation pressure: 10.9 ± 0.11 kPa
284.88 K
  vapor or sublimation pressure: 11.68 ± 0.033 kPa
286.55 K
  vapor or sublimation pressure: 12.44 ± 0.036 kPa
288.5 K
  vapor or sublimation pressure: 13.79 ± 0.04 kPa
289 K
  vapor or sublimation pressure: 14 ± 0.039 kPa
289.66 K
  vapor or sublimation pressure: 14.48 ± 0.045 kPa
291.04 K
  vapor or sublimation pressure: 15.65 ± 0.047 kPa
292.31 K
  vapor or sublimation pressure: 16.65 ± 0.047 kPa
293.3 K
  vapor or sublimation pressure: 17.43 ± 0.049 kPa
296.05 K
  vapor or sublimation pressure: 19.72 ± 0.052 kPa
296.84 K
  vapor or sublimation pressure: 20.37 ± 0.054 kPa
297.09 K
  vapor or sublimation pressure: 20.65 ± 0.061 kPa
298.15 K
  vapor or sublimation pressure: 21.5 ± 0.058 kPa
298.72 K
  vapor or sublimation pressure: 22.24 ± 0.058 kPa
300.57 K
  vapor or sublimation pressure: 23.84 ± 0.062 kPa
301.73 K
  vapor or sublimation pressure: 25.28 ± 0.068 kPa
302.96 K
  vapor or sublimation pressure: 26.62 ± 0.064 kPa
303.23 K
  vapor or sublimation pressure: 26.87 ± 0.068 kPa
304.04 K
  vapor or sublimation pressure: 27.79 ± 0.073 kPa
305.35 K
  vapor or sublimation pressure: 29.43 ± 0.074 kPa
306.54 K
  vapor or sublimation pressure: 30.77 ± 0.074 kPa
308.07 K
  vapor or sublimation pressure: 32.49 ± 0.082 kPa
310.2 K
  vapor or sublimation pressure: 35.55 ± 0.09 kPa
310.86 K
  vapor or sublimation pressure: 36.65 ± 0.099 kPa
311.9 K
  vapor or sublimation pressure: 38.54 ± 0.095 kPa
313.12 K
  vapor or sublimation pressure: 40.13 ± 0.079 kPa
313.18 K
  vapor or sublimation pressure: 40.09 ± 0.079 kPa
315.86 K
  vapor or sublimation pressure: 44.65 ± 0.11 kPa
317.71 K
  vapor or sublimation pressure: 47.86 ± 0.11 kPa
319.58 K
  vapor or sublimation pressure: 51.31 ± 0.12 kPa
321.57 K
  vapor or sublimation pressure: 55.34 ± 0.13 kPa
323.59 K
  vapor or sublimation pressure: 59.46 ± 0.14 kPa
